Calls of active or inactive are those of the source. The calls are words filed in the database; no cut-off is given here.
Assays:
Mus musculus [1] = experiment: Anticonvulsant activity in Mus musculus Swiss albino (mouse) assessed as reduction in maximal electroshock-induced seizure at 30 to 300 mg/kg, ip measured after 0.5 hr; assay type: functional, organism-based
Mus musculus [2] = experiment: Anticonvulsant activity in Mus musculus Swiss albino (mouse) assessed as reduction in maximal electroshock-induced seizure at 30 to 300 mg/kg, ip measured after 4 hr; assay type: functional, organism-based
Mus musculus [3] = experiment: Neurotoxicity against Mus musculus Swiss albino (mouse) assessed as inability to maintain equilibrium on rod at 30 to 300 mg/kg, ip measured after 0.5 hr by rotarod test; assay type: toxicity, organism-based; set-up: dose 30-300 mg/kg, route intraperitoneal; details: in vivo
Mus musculus [4] = experiment: Neurotoxicity against Mus musculus Swiss albino (mouse) assessed as inability to maintain equilibrium on rod at 30 to 300 mg/kg, ip measured after 4 hr by rotarod test; assay type: toxicity, organism-based; set-up: dose 30-300 mg/kg, route intraperitoneal; details: in vivo
Mus musculus [5] = experiment: Anticonvulsant activity in Mus musculus Swiss albino (mouse) assessed as reduction in maximal electroshock-induced seizure at 300 mg/kg, ip measured after 4 hr; assay type: functional, organism-based; set-up: dose 300 mg/kg
Mus musculus [6] = experiment: Neurotoxicity against Mus musculus Swiss albino (mouse) assessed as inability to maintain equilibrium on rod at 300 mg/kg, ip measured after 4 hr by rotarod test; assay type: toxicity, organism-based; set-up: dose 300 mg/kg, route intraperitoneal; details: in vivo

| Compound | Activity (Mus musculus [1]) | Activity (Mus musculus [2]) | Activity (Mus musculus [3]) | Activity (Mus musculus [4]) | Activity (Mus musculus [5]) | Activity (Mus musculus [6]) |
| --- | --- | --- | --- | --- | --- | --- |
| O=C1OC(c2ccccc2)C(=O)N1CCN1CCN(c2ccc(O)cc2)CC1 (stereo unspecified) | inactive | inactive | Non-toxic | Non-toxic | – | – |
| O=C1OC(c2ccccc2)C(=O)N1CCN1CCN(c2ccc([N+](=O)[O-])cc2)CC1 (stereo unspecified) | inactive | – | Non-toxic | – | Active | Toxic |
| O=C1NC(c2ccccc2)(c2ccccc2)C(=O)N1CCNc1ccc(O)cc1 | inactive | inactive | Non-toxic | Non-toxic | – | – |
| O=C1OC(c2ccccc2)C(=O)N1CCN1CCN(c2ccc(Cl)cc2)CC1 (stereo unspecified) | inactive | inactive | Non-toxic | Non-toxic | – | – |
| Cc1ccc(N2CCN(CCN3C(=O)OC(c4ccccc4)C3=O)CC2)cc1 (stereo unspecified) | inactive | inactive | Non-toxic | Non-toxic | – | – |
| O=C1OC(c2ccccc2)C(=O)N1CCN1CCN(c2ccccn2)CC1 (stereo unspecified) | inactive | inactive | Non-toxic | Non-toxic | – | – |
| O=C1NC(c2ccccc2)(c2ccccc2)C(=O)N1CCN1CCN(c2ccc(O)cc2)CC1 | inactive | – | Non-toxic | – | Active | Toxic |
| O=C1NC(c2ccccc2)(c2ccccc2)C(=O)N1CCN1CCN(c2ccccn2)CC1 | inactive | inactive | Non-toxic | Non-toxic | – | – |
| O=C1NC(c2ccccc2)(c2ccccc2)C(=O)N1CCN1CCN(c2ccc([N+](=O)[O-])cc2)CC1 | inactive | – | Non-toxic | – | Active | Toxic |
| Cc1ccc(NCCN2C(=O)OC(c3ccccc3)C2=O)cc1 (stereo unspecified) | inactive | inactive | Non-toxic | Non-toxic | – | – |
| O=C1OC(c2ccccc2)C(=O)N1CCNc1ccc(F)cc1 (stereo unspecified) | inactive | – | Non-toxic | – | Active | Toxic |
| Cc1ccc(NCCN2C(=O)NC(c3ccccc3)(c3ccccc3)C2=O)cc1 | inactive | inactive | Non-toxic | Non-toxic | – | – |
| O=C1NC(c2ccccc2)(c2ccccc2)C(=O)N1CCNc1ccc(Cl)cc1 | inactive | inactive | Non-toxic | Non-toxic | – | – |
| O=C1NC(c2ccccc2)(c2ccccc2)C(=O)N1CCN1CCN(c2ccc(Cl)cc2)CC1 | inactive | inactive | Non-toxic | Non-toxic | – | – |

Source: ChEMBL document CHEMBL3044586, “Design, synthesis, and anticonvulsant screening of some substituted piperazine and aniline derivatives of 5-phenyl-oxazolidin-2,4-diones and 5,5-diphenylimidazolidin-2,4 diones” (Med Chem Res, 2012)
